The source of these data is ChEMBL document CHEMBL4385664, “Targeting TRAIL” (Bioorg Med Chem Lett, 2019).

The IC50 is the concentration that inhibits the measured activity by half.

Some results are limits rather than exact numbers.

The assay in a line: Activation of TRAIL receptor in human T98G cells assessed as reduction in cel viability by Cell-titer-Glo luminescent cell viability assay. The assay is classed as cell-based.
Regarding `COc1ccc(N2C(=N)S/C(=C\c3ccc(-c4cncnc4)o3)C2=O)cc1`, the IC50 was more than 30 µM.

Turning to `COc1ccc(N2C(=N)S/C(=C\c3ccc(-c4ccc(OC)c(F)c4)o3)C2=O)cc1`, the IC50 came to 20 µM.

In the case of `CN1C(=N)S/C(=C\c2ccc(-c3ccc4c(c3)C(=O)NC4=O)o2)C1=O`, the IC50 is more than 30 µM.

On to `COc1ccc(N2C(=N)S/C(=C\c3ccc(-c4ccccc4)o3)C2=O)cc1`, for which the IC50 is more than 30 µM. To `N=C1S/C(=C\c2ccc(-c3ccc4c(c3)C(=O)NC4=O)o2)C(=O)N1c1ccccc1` belongs more than 30 µM; to `N=C1S/C(=C\c2ccc(-c3ccc4c(c3)C(=O)NC4=O)o2)C(=O)N1c1ccc(Br)cc1`, 2 µM; to `COc1cccc(N2C(=N)S/C(=C\c3ccc(-c4ccc5c(c4)C(=O)NC5=O)o3)C2=O)c1`, 10 µM. To `COc1ccc(N2C(=N)S/C(=C\c3ccc(-c4ccc5c(c4)C(=O)NC5=O)o3)C2=O)cc1` belongs more than 30 µM; to `COc1ccc(N2C(=N)S/C(=C\c3ccc(-c4ccc5c(c4)C(=O)N(C)C5=O)o3)C2=O)cc1`, more than 30 µM. To `N=C1S/C(=C\c2ccc(-c3ccc4c(c3)C(=O)NC4=O)o2)C(=O)N1c1ncc[nH]1` belongs 20 µM. In the case of `N=C1S/C(=C\c2ccc(-c3ccc4c(c3)C(=O)NC4=O)o2)C(=O)N1c1ccc(Cl)cc1`, the IC50 turned out to be 25 µM. The value for `COc1ccc(N2C(=N)S/C(=C\c3ccc(-c4ccncc4)o3)C2=O)cc1` was 20 µM. To `COc1ccc(/C=C2\SC(=N)N(c3ccc(OC)cc3)C2=O)cc1` belongs more than 30 µM; to `COc1ccc(N2C(=O)S/C(=C\c3ccc(-c4ccc5c(c4)C(=O)NC5=O)o3)C2=O)cc1`, more than 30 µM; to `N=C1S/C(=C\c2ccc(-c3ccc4c(c3)C(=O)NC4=O)o2)C(=O)N1c1ccc(F)cc1`, 20 µM.

As to `C=CCN1C(=N)S/C(=C\c2ccc(-c3ccc4c(c3)C(=O)NC4=O)o2)C1=O`, the IC50 is more than 30 µM.

Take `COc1ccc(N2C(=N)S/C(=C\c3ccc(-c4ccc5c(c4)C(=O)N(Cc4ccccc4)C5=O)o3)C2=O)cc1`: the IC50 is more than 30 µM.

`COc1ccc(N2C(=N)S/C(=C\c3ccc(-c4ccc5c(c4)C(=O)NC5=O)s3)C2=O)cc1`: the IC50 is 10 µM. The value for `COc1ccc(N2C(=N)S/C(=C\c3ccc(-c4cccnc4)o3)C2=O)cc1` was 25 µM; that for `CN(C)c1ccc(N2C(=N)S/C(=C\c3ccc(-c4ccc5c(c4)C(=O)NC5=O)o3)C2=O)cc1` was more than 30 µM. To `N=C1S/C(=C\c2ccc(-c3ccc4c(c3)C(=O)NC4=O)o2)C(=O)N1c1ccccn1` belongs more than 30 µM; to `N=C1S/C(=C\c2ccc(-c3ccc4c(c3)C(=O)NC4=O)o2)C(=O)N1c1ccc(C(F)(F)F)cc1`, more than 30 µM. The value for `Cc1ccc(N2C(=N)S/C(=C\c3ccc(-c4ccc5c(c4)C(=O)NC5=O)o3)C2=O)cc1` was more than 30 µM; that for `Cc1csc(N2C(=N)S/C(=C\c3ccc(-c4ccc5c(c4)C(=O)NC5=O)o3)C2=O)n1` was more than 30 µM.
